# Counter-ions that a name gives are not always drawn.
# Test system: acetic acid-induced writhing in ddy mice
# Assay: animal or person
# Assay type: in vivo, 5 week old ddy mice
# Settings: Mus musculus, sc, s.c. 15 minutes before acetic acid, read-out: ED50
# Experimental: 5 week old ddy mice were used in this test. After intraperitoneal administration of 0.1 ml of 0.6% aqueous acetic acid per 10 g of body weight, the number of writhing reactions that occurred in 10 minutes starting 10 minutes after administration was evaluated for the indicator. The test drug was administered subcutaneously into the backs of the animals 15 minutes before administration of acetic acid.
row,SMILES,ED50 [mg/kg]
1,"CN(C(=O)OCc1ccccc1)[C@H]1CC[C@@]2(O)[C@H]3Cc4cccc5c4[C@@]2(CCN3CC2CC2)[C@H]1O5 [Compound 74, 17-cyclopropylmethyl-14β-hydroxy-4,5α-epoxy-6α-(N-methylbenzyloxycarbamido)morphinan.cndot.phosphate]",0.78
2,"CN(C(=O)Cc1ccc(N)cc1)[C@H]1CC[C@@]2(O)[C@H]3Cc4ccc(O)c5c4[C@@]2(CCN3CC2CC2)[C@H]1O5 [Compound 137, 17-cyclopropylmethyl-3,14β-dihydroxy-4,5α-epoxy-6α-(N-methyl-4-aminophenylacetamido)morphinanan.cndot.1.6 hydrochloride]",0.17
3,"CN(C(=O)C#Cc1ccoc1)[C@@H]1CC[C@@]2(O)[C@H]3Cc4ccc(O)c5c4[C@@]2(CCN3CC2CC2)[C@H]1O5.O=C(O)C(O)C(O)C(=O)O [Compound 177, 17-cyclopropylmethyl-3,14β-dihydroxy-4,5α-epoxy-6β-[N-methyl-(3-furyl)propiolamido]morphinan tartrate]",0.0096
4,"CCCCN1CC[C@]23c4c5ccc(O)c4O[C@H]2[C@H](N(C)C(=O)/C=C/c2ccoc2)CC[C@@]3(O)[C@H]1C5.O=C(O)C(O)C(O)C(=O)O (relative stereo) [Compound 163, 17-butyl-3,14β-dihydroxy-4,5α-epoxy-6β-[N-methyl-trans-3-(3-furyl)acrylamido]morphinan tartrate]",0.37
5,"CO[C@H](C(=O)N(C)[C@H]1CC[C@@]2(O)[C@H]3Cc4ccc(O)c5c4[C@@]2(CCN3CC2CC2)[C@H]1O5)c1ccccc1 [Compound 31, 17-cyclopropylmethyl-3,14β-dihydroxy-4,5α-epoxy-6α-[(S)-N-methylmethoxyphenylacetamido]morphinan.cndot.hydrochloride]",0.75
6,"Cc1ccc(/C=C/C(=O)N(C)[C@@H]2CC[C@@]3(O)[C@H]4Cc5ccc(O)c6c5[C@@]3(CCN4CC3CC3)[C@H]2O6)o1.Cl (relative stereo) [Compound 158, 17-cyclopropylmethyl-3,14β-dihydroxy-4,5α-epoxy-6β-[N-methyl-trans-3-(5-methyl-2-furyl)acrylamido]morphinan hydrochloride]",0.0071
7,"CN(C(=O)NCc1ccccc1)[C@H]1CC[C@@]2(O)[C@H]3Cc4ccc(O)c5c4[C@@]2(CCN3CC2CC2)[C@H]1O5 [Compound 132, 17-Cyclopropylmethyl-3,14β-dihydroxy-4,5α-epoxy-6α-(N-methyl-N'-benzylureido)morphinan.cndot.tartrate]",0.073
8,"Cc1occc1/C=C/C(=O)N(C)[C@@H]1CC[C@@]2(O)[C@H]3Cc4ccc(O)c5c4[C@@]2(CCN3CC2CC2)[C@H]1O5.Cl (relative stereo) [Compound 159, 17-cyclopropylmethyl-3,14β-dihydroxy-4,5α-epoxy-6β-[N-methyl-trans-3-(2-methyl-3-furyl)acrylamido]morphinan hydrochloride]",0.0032
9,"CN(C(=O)Cc1ccccc1)[C@@H]1CC[C@@]2(O)[C@H]3Cc4ccc(O)c5c4[C@@]2(CCN3CC2CC2)[C@H]1O5 [Compound 55, 17-cyclopropylmethyl-3,14β-dihydroxy-4,5α-epoxy-6β-(N-methylphenylacetamido)morphinan.cndot.hydrochloride]",0.98
10,"Br.CN(C(=O)/C=C/c1cc(Br)cs1)[C@@H]1CC[C@@]2(O)[C@H]3Cc4ccc(O)c5c4[C@@]2(CCN3CC2CC2)[C@H]1O5 (relative stereo) [Compound 157, 17-cyclopropylmethyl-3,14β-dihydroxy-4,5α-epoxy-6β-[N-methyl-trans-3-(4-bromo-2-thienyl)acrylamido]morphinan hydrobromide]",0.003
11,"Cc1ccc(/C=C/C(=O)N(C)[C@@H]2CC[C@@]3(O)[C@H]4Cc5ccc(O)c6c5[C@@]3(CCN4CC3CC3)[C@H]2O6)cc1 [Compound 155, 17-cyclopropylmethyl-3,14β-dihydroxy-4,5α-epoxy-6β-(N-methyl-4-methylcinnamamido)morphinan hydrochloride]",0.012
12,"CC(=O)Oc1ccc2c3c1O[C@H]1[C@@H](N(C)C(=O)Cc4ccc(Cl)c(Cl)c4)CC[C@@]4(O)[C@@H](C2)N(CC2CC2)CC[C@]314 [Compound 139, 17-Cyclopropylmethyl-3-acetoxy-4,5α-epoxy-14β-hydroxy-6α-(N-methyl-3,4-dichlorophenylacetamido)morphinan.cndot.hydrochloride]",0.04
13,"CN(C(=O)Cc1cccc(N)c1)[C@H]1CC[C@@]2(O)[C@H]3Cc4ccc(O)c5c4[C@@]2(CCN3CC2CC2)[C@H]1O5 [Compound 138, 17-Cyclopropylmethyl-3,14β-dihydroxy-4,5α-epoxy-6α-(N-methyl-3-aminophenylacetamido)morphinan.cndot.1.1 tartrate]",0.014
14,"COc1ccc2c3c1O[C@H]1[C@@H](N(C)C(=O)Cc4ccc(Cl)c(Cl)c4)CC[C@@]4(O)[C@@H](C2)N(CC2CC2)CC[C@]314 [Compound 142, 17-cyclopropylmethyl-4,5α-epoxy-14β-hydroxy-3-methoxy-6α-(N-methyl-3,4-dichlorophenylacetamido)morphinan.cndot.tartrate]",0.78
15,CN(C(=O)CC1CCCCC1)[C@H]1CC[C@@]2(O)[C@H]3Cc4ccc(O)c5c4[C@@]2(CCN3CC2CC2)[C@H]1O5 [Compound 85],0.113
16,"CN([C@H]1CC[C@@]2(O)[C@H]3Cc4ccc(O)c5c4[C@@]2(CCN3CC2CC2)[C@H]1O5)S(=O)(=O)Cc1ccc(Cl)c(Cl)c1 [Compound 128, 17-cyclopropylmethyl-4,5α-epoxy-3,14β-dihydroxy-6α-(N-methyl-3,4-dichlorophenylmethanesulfonamido)morphinan.cndot.tartrate]",0.63
17,"CN(C(=O)C#Cc1ccco1)[C@@H]1CC[C@@]2(O)[C@H]3Cc4ccc(O)c5c4[C@@]2(CCN3CC2CC2)[C@H]1O5.Cl [Compound 175, 17-cyclopropylmethyl-3,14β-dihydroxy-4,5α-epoxy-6β-[N-methyl-3-(2-furyl)propiolamido]morphinan hydrochloride]",0.018
18,"CN(C(=O)/C=C/c1ccoc1)[C@@H]1CC[C@@]2(O)[C@H]3Cc4cccc5c4[C@@]2(CCN3CC2CC2)[C@H]1O5 [Compound 204, 17-cyclopropylmethyl-4,5α-epoxy-14-hydroxy-6β-[N-methyl-trans-3-(3-furan)acrylamido]morphinan hydrochloride]",0.013
19,"CN(C(=O)Cc1cccc(Br)c1)[C@H]1CC[C@@]2(O)[C@H]3Cc4ccc(O)c5c4[C@@]2(CCN3CC2CC2)[C@H]1O5 [Compound 26, 17-cyclopropylmethyl-3,14β-dihydroxy-4,5α-epoxy-6α-(N-methyl-3-bromophenylacetamido)morphinan.cndot.hydrobromate]",0.099
20,"COc1ccc(C#CC(=O)N(C)[C@H]2CC[C@@]3(O)[C@H]4Cc5ccc(O)c6c5[C@@]3(CCN4CC3CC3)[C@H]2O6)cc1.O=C(O)C(O)C(O)C(=O)O [Compound 187, 17-cyclopropylmethyl-3,14β-dihydroxy-4,5α-epoxy-6α-[N-methyl-3-(4-methoxyphenyl)propiolamido]morphinan tartrate]",0.026
21,"CN(C(=O)/C=C/c1cccnc1)[C@@H]1CC[C@@]2(O)[C@H]3Cc4ccc(O)c5c4[C@@]2(CCN3CC2CC2)[C@H]1O5.O=C(O)C(O)C(O)C(=O)O (relative stereo) [Compound 153, 17-cyclopropylmethyl-3,14β-dihydroxy-4,5α-epoxy-6β-[N-methyl-trans-3-(3-pyridyl)acrylamido]morphinan tartrate]",0.13
22,"CN(C(=O)Cc1ccc([N+](=O)[O-])cc1)[C@H]1CC[C@@]2(O)[C@H]3Cc4ccc(O)c5c4[C@@]2(CCN3CC2CC2)[C@H]1O5 [Compound 87, 17-cyclopropylmethyl-3,14β-dihydroxy-4,5α-epoxy-6α-(N-methyl-4-nitrophenylacetamido)morphinan.cndot.hydrochloride]",0.027
23,"CN(C(=O)OCc1cccnc1)[C@H]1CC[C@@]2(O)[C@H]3Cc4ccc(O)c5c4[C@@]2(CCN3CC2CC2)[C@H]1O5 [Compound 44, 17-cyclopropylmethyl-4,5α-epoxy-3,14β-dihydroxy-6α-[N-methyl-(3-pyridyl)methyloxycarbamido]morphinan.cndot.tartrate]",0.084
24,"CN(C(=O)C#Cc1ccco1)[C@H]1CC[C@@]2(O)[C@H]3Cc4ccc(O)c5c4[C@@]2(CCN3CC2CC2)[C@H]1O5.O=C(O)C(O)C(O)C(=O)O [Compound 186, 17-cyclopropylmethyl-3,14β-dihydroxy-4,5α-epoxy-6α-[N-methyl-3-(2-furyl)propiolamido]morphinan tartrate]",0.0061
25,"COc1ccc(C#CC(=O)N(C)[C@@H]2CC[C@@]3(O)[C@H]4Cc5ccc(O)c6c5[C@@]3(CCN4CC3CC3)[C@H]2O6)cc1.Cl [Compound 176, 17-cyclopropylmethyl-3,14β-dihydroxy-4,5α-epoxy-6β-[N-methyl-3-(4-methoxyphenyl)propiolamido]morphinan hydrochloride]",0.11
26,"CN(C(=O)COc1c(Cl)cc(Cl)cc1Cl)[C@@H]1CC[C@@]2(O)[C@H]3Cc4ccc(O)c5c4[C@@]2(CCN3CC2CC2)[C@H]1O5.Cl [Compound 199, 17-cyclopropylmethyl-3,14β-dihydroxy-4,5α-epoxy-6β-(N-methyl-2,4,6-trichlorophenoxyacetamido)morphinan hydrochloride]",0.017

# Same assay, conditions: s.c. 15 minutes before acetic acid
row,SMILES,ED50 [mg/kg]
1,"Cc1ccc(/C=C/C(=O)N(C)[C@@H]2CC[C@@]3(O)[C@H]4Cc5ccc(O)c6c5[C@@]3(CCN4CC3CC3)[C@H]2O6)s1.O=C(O)C(O)C(O)C(=O)O (relative stereo) [Compound 160, 17-cyclopropylmethyl-3,14β-dihydroxy-4,5α-epoxy-6β-[N-methyl-trans-3-(5-methyl-2-thienyl)acrylamido]morphinan tartrate]",0.0027
2,"Cc1ccc(C#CC(=O)N(C)[C@@H]2CC[C@@]3(O)[C@H]4Cc5ccc(O)c6c5[C@@]3(CCN4CC3CC3)[C@H]2O6)cc1.Cl [Compound 171, 17-cyclopropylmethyl-3,14β-dihydroxy-4,5α-epoxy-6β-[N-methyl-3-(4-methylphenyl)propiolamido]morphinan hydrochloride]",0.038

# From patent publication US6177438A, “Morphinan derivatives and pharmaceutical use thereof” (priority 1993, dated 2001)
